# Assay results as given in patent US20070155786A1, “Methods for treating oral aphthous stomatitis and oral mucositis” (priority 2004, published 2007).
# Where a name gives a salt, the structure may show the parent alone.
# Experiments:
# Format in all cases: in vivo, human
# aphtha = experiment: Case reports: rinse with quinoline derivative solution followed by chlorhexidine rinse in patients with aphthae
# Source text: (§1) Hydroxychloroquine (HCQ) was obtained from Sanofi-Syntelabo, Inc. New York USA, quinine (Q) and quinidine sulfate were obtained from Rakah, Holon, Israel. The compounds were mixed with tap water. Chlorhexidine was obtained from LACER S.A., Barcelona, Spain.
# A person, generally in good health, presented a most painful, distressing major aphtha of approximately 1 cm diameter on the ventro-lateral tongue. They had suffered the presence of such lesions for several years (recurrences of 6 to 8 episodes per year). The current lesion had been present for about one week. During examination 2 lymph nodes were palpated in the floor of mouth, probably due to a secondary infection. They started to apply a rinse with 3.72 mg/cc HCQ solution (for 3 to 5 minutes) followed by a rinse with 0.12% chlorhexidine alcohol free solution (for about 1 minute), 3 times a day. Two days later, the patient was totally free of pain and the size of the aphtha diminished to about 7 mm diameter.
# A person, presented a painful minor aphtha on the ventro-lateral part of the tongue. They reported its appearance about 1 week ago. In the past, frequent episodes of minor aphthae had occurred every 2 months. They started to rinse with 10 ml of quinine sulfate Solution 3 mg/cc (for 3 to 5 minutes) followed by a rinse with 0.12% chlorhexidine alcohol free solution (for about 1 minute), 3 times a day.
# aphtha (canker sores) = experiment: Case reports: mouth rinses with a quinoline derivative solution in patients with aphthae
# Source text: as §1
# A person, generally in good health, reported the presence of canker sores for several years (periodic recurrences of 3 to 4 episodes per year). […] The patient was seen five days after the appearance of the painful aphtha. They started oral rinses with 10 ml of hydroxychloroquine (HCQ) solution, 3.7 mg/ml, three times a day, each rinse for 3 to 5 min. […] They continued to rinse for about a week. No additional aphthous lesions appeared during 8 weeks of follow-up.
# A person, in otherwise general good health, came with two painful major aphthae, one of 12 mm diameter on the left side of the lower lip mucosa and the second on the right latero-ventral side of the tongue, about 8 mm diameter. They reported the presence of recurrent aphthous lesions since they were […]. During the last year, they continuously suffered from recurrent episodes of major aphthae, with virtually no aphtae-free intervals. Each episode of aphthae usually lasted for 3 to 6 weeks. They started oral rinses with 10 ml of HCQ solution, 3.7 mg/ml, three times a day, each rinse for 3 to 5 min. […] Concomitantly, 2 new lesions of minor aphthae, 3 mm in diameter each, were seen, one on the left side of the upper lip mucosa and the other on the ventro-anterior side of the tongue. […] In total, they rinsed with the HCQ solution for 20 days.
# A child, in otherwise general good health, reported the presence of recurrent aphthous lesions of different sizes for the last 2 years. The last episode had been about 3 months before examination. The lesions had disappeared within 2 weeks after using different conventional treatments. At clinical examination, one aphtha of about 3 mm diameter was found on the lower lip mucosa and another one about 6 mm diameter was found on the upper lip mucosa. Both lesions were painful. They started rinsing with 10 ml of HCQ solution, 2.5 mg/ml, three times a day, each rinse for 3 to 5 min. […] They reported to be free of any pain already after 24 hours from the start of rinsing. […], therefore, was able to eat everything. The patient was advised to continue rinsing with 10 ml of hydroxychloroquine (HCQ) solution, 3.7 mg/ml, three times a day, each rinse for 3 to 5 min for 7 additional days. […] They still continued with the rinses for 5 additional days, as recommended.
# A person reported suffering from recurrent episodes of canker sores for many years, with 2 to 3 episodes per year. The last episode had occurred about 6 months before examination. They were diagnosed with diabetes mellitus, so that use of steroidal modalities for treatment of their aphthous lesions was contraindicated. […] They started rinsing with 10 ml of HCQ solution, 1.2 mg/ml, three times a day, each rinse for 3 to 5 min. After 24 hours from start of rinses they were free of any pain and was able to eat everything. […] They remained aphthae-free for 7 months.
# A person, generally in good health, reports the presence of canker sores since childhood with about 8 to 10 recurrences per year. At clinical examination a minor painful aphtha was present on the mucosa of the lower lip. The ulcer was about 4-5 mm in diameter and was present for 8 days. […] They started to rinse with 10 ml of hydroxychloroquine (HCQ) solution, 1.2 mg/ml, three times a day, each rinse for 3 to 5 min.
# A person presented a painful minor aphtha of about 3 mm in diameter in the right vestibulum of the lower jaw adjacent to the first molar. They reported the presence of pain and inconvenience for 2 days. In the past, they had experienced recurrences of such lesions every 3 to 4 months. They started to rinse with 10 ml of 0.085 mg/ml quinine solution for 3 to 5 minutes, about 5 to 7 times a day. […]
# [1] = test system: oral aphthous stomatitis and oral mucositis; experiment: General statements on treating oral aphthous stomatitis and oral mucositis in patients
# Source text: In experiments carried out with particular preferred compounds of the invention, the pain caused by ulcerative lesions disappeared often within hours, and the ulcers and other symptoms disappeared usually within days. For example, patients with life-long recurrent aphthae problems achieved quick relief of pains caused by aphthae ulcers after rinsing their mouth with aqueous solutions comprising said compounds. The effect is often enhanced when said quinoline derivative is used together with an antiseptic.
# Quinine at levels up to 83 ppm is approved by FDA for use in beverages as a flavoring agent.
# In other preferred embodiment of this invention, oral mucositis is treated by a quinine (Q) salt in solution or suspension, which is used several times a day for rinsing mouth without swallowing, followed by rinsing with chlorhexidine solution. The concentration of Q is preferably about 0.083 mg/ml, and chlorhexidine solution has preferably a concentration from 0.05% to 0.2%. The rinsing with each of the two components is preferably performed 3-5 times a day. Said Q solution may comprise Q dihydrochloride, Q hydrochloride, Q sulfate, and other Q salts. Said Q suspension may, for example, comprise Q sulfate. Stereoisomers of quinine and their salts, such as quinidine sulfate, have been also found active.
# erosive lichen planus = experiment: Case report: rinse and swallow of quinine solution in a patient with erosive lichen planus
# Source text: as §1
# A person presented diffuse erosions/ulcerations of the buccal, labial and lingual mucosae that were present for at least 6 months. They complained of pain and difficulty to eat and speak. The erosive/ulcerative lesions were clinically specific for erosive lichen planus. They started to rinse (for 5 to 10 min) and swallow about 10- 20 ml of 0.085 mg/ml quinine solution, 5 to 7 times a day. […] They were able to maintain a stable asymptomatic condition of their lichen planus by means of quinine solution during about 1 year follow-up period.
# [2] = Example 2: HCQ solution 3.7 mg/ml
# [3] = Example 2: HCQ solution 3.7 mg/ml, three times a day
# [4] = Example 3: HCQ solution 2.5 mg/ml, three times a day
# [5] = Example 7: 0.085 mg/ml quinine solution, rinse and swallow
structure (smiles),measurement,setting,value
C=C[C@H]1C[N@@]2CC[C@H]1C[C@H]2[C@H](O)c1ccnc2ccc(OC)cc12 [quinine sulfate],time until pain decreased significantly,"aphtha; Example 9: person, minor aphtha, 10 ml quinine sulfate solution 3 mg/cc followed by 0.12% chlorhexidine rinse, 3 times a day",≤ 24 h
same,time until all the inconvenience disappeared,"aphtha; Example 9: quinine sulfate solution 3 mg/cc followed by 0.12% chlorhexidine rinse, 3 times a day",≤ 48 h
"CCN(CCO)CCCC(C)Nc1ccnc2cc(Cl)ccc12 (centres unmarked) [HCQ, Hydroxychloroquine]",diameter of the aphtha two days later (initially approximately 1 cm),"aphtha; Example 8: 3.72 mg/cc HCQ rinse followed by 0.12% chlorhexidine rinse, 3 times a day",about 7 mm
same,state of the aphtha after 2 additional days of treatment,"aphtha; Example 8: 3.72 mg/cc HCQ rinse followed by 0.12% chlorhexidine rinse, 2 + 2 days",completely disappeared
same,time until totally free of pain,"aphtha; Example 8: person, major aphtha approx. 1 cm, probable secondary infection, 3.72 mg/cc HCQ rinse followed by 0.12% chlorhexidine rinse, 3 times a day",Two
same,follow-up without additional aphthous lesions,"aphtha (canker sores); Example 1: HCQ solution 3.7 mg/ml, rinsed about a week",8 weeks
same,state of the aphtha 24 hours after start of treatment,"aphtha (canker sores); Example 1: minor aphtha, HCQ solution 3.7 mg/ml, three times a day",almost disappeared
same,time after start of treatment until free of any pain,"aphtha (canker sores); Example 1: person, minor aphtha, rinses 10 ml HCQ solution 3.7 mg/ml, three times a day, 3 to 5 min",Twenty-four
same,new minor aphtha (3 mm) on the lip after 4 more days of rinsing,aphtha (canker sores); [2],diminished significantly in its size
same,new minor aphtha (3 mm) on the tongue after 4 more days of rinsing,aphtha (canker sores); [2],disappeared
same,pain from the two new minor aphthous lesions,aphtha (canker sores); [2],did not cause any pain whatsoever
same,follow up with no new aphthous lesions,"aphtha (canker sores); Example 2: HCQ solution 3.7 mg/ml, rinsed 20 days in total",3 months
same,"aphtha of the tongue (about 8 mm), 5 days later",aphtha (canker sores); [3],completely disappeared
same,"major aphtha of the lower lip (12 mm), 5 days later",aphtha (canker sores); [3],decreased in size to about half its original size
same,major aphtha on the lower lip mucosa after 6 additional days,"aphtha (canker sores); Example 2: HCQ solution 3.7 mg/ml, 5 + 6 days, left a pronounced scar",disappeared completely
same,time after start of rinses until pain completely disappeared,"aphtha (canker sores); Example 2: person, two major aphthae, 10 ml HCQ solution 3.7 mg/ml, three times a day, 3 to 5 min",24 h
same,diameter of aphtha on the lower lip after 5 days (initially about 3 mm),aphtha (canker sores); [4],about 1 mm
same,time from start of rinsing until free of any pain,aphtha (canker sores); [4],24 h
same,follow up after cessation of rinses without new aphthae,aphtha (canker sores); Example 3: HCQ solution 2.5 then 3.7 mg/ml,5 weeks
same,time until aphtha on the lower lip disappeared completely after continuing with 3.7 mg/ml,"aphtha (canker sores); Example 3: after 5 days at 2.5 mg/ml, HCQ solution 3.7 mg/ml three times a day",≤ 2 days
same,lesion on upper lip (about 6 mm) after 5 days,"aphtha (canker sores); Example 3: child, 10 ml HCQ solution 2.5 mg/ml, three times a day, 3 to 5 min",almost disappeared
same,aphthae-free period,aphtha (canker sores); Example 4: HCQ solution 1.2 mg/ml,7 months
same,state of the aphtha after 7 days of rinsing,"aphtha (canker sores); Example 4: HCQ solution 1.2 mg/ml, three times a day",almost disappeared
same,time from start of rinses until free of any pain,"aphtha (canker sores); Example 4: person, diabetes mellitus, major aphthous lesion about 8 mm, 10 ml HCQ solution 1.2 mg/ml, three times a day",24 h
same,follow up with no new aphthae,aphtha (canker sores); Example 5: HCQ solution 1.2 mg/ml,4 months
same,time until aphtha completely disappeared,"aphtha (canker sores); Example 5: HCQ solution 1.2 mg/ml, three times a day",three
same,time of rinses until no pain,"aphtha (canker sores); Example 5: person, minor aphtha 4-5 mm, 10 ml HCQ solution 1.2 mg/ml, three times a day",one
C=C[C@H]1C[N@@]2CC[C@H]1C[C@H]2[C@H](O)c1ccnc2ccc(OC)cc12 [quinine],outcome in patients with major aphtha accompanied by a secondary infection,"[1]; mouth rinsing with 0.083 mg/ml of quinine, and optionally chlorhexidine, several minutes, several times a day",relief of pains and healing
same,time until ulcer healed completely,"aphtha (canker sores); Example 6: 0.085 mg/ml quinine solution, 5 to 7 times a day",≤ 4 days
same,time until pain and inconvenience disappeared,"aphtha (canker sores); Example 6: person, minor aphtha about 3 mm, 10 ml 0.085 mg/ml quinine solution, 3 to 5 minutes, 5 to 7 times a day",2 days
same,follow-up with no further recurrences,aphtha (canker sores); Example 10: 0.085 mg/ml quinine solution,about 6 months
same,time until disappearance of the aphtha,"aphtha (canker sores); Example 10: 0.085 mg/ml quinine solution, rinse and swallow",about 4 days
same,time until free of any symptoms,"aphtha (canker sores); Example 10: person, minor aphtha about 4 mm, 10 ml 0.085 mg/ml quinine solution, about 5 times per day, rinse 3 to 5 min and swallow",≤ 24 h
same,erosive/ulcerative lesions after about 4 weeks,erosive lichen planus; [5],marked healing
same,symptoms of the lesions after about 4 weeks,erosive lichen planus; [5],completely asymptomatic
same,follow-up period with stable asymptomatic condition of lichen planus,erosive lichen planus; Example 7: maintained by quinine solution,about 1 year
same,pain and masticatory function after 3 days,"erosive lichen planus; Example 7: person, rinse (5 to 10 min) and swallow 10-20 ml of 0.085 mg/ml quinine solution, 5 to 7 times a day",significant amelioration
C=C[C@H]1C[N@@]2CC[C@H]1C[C@@H]2[C@@H](O)c1ccnc2ccc(OC)cc12 [quinidine sulfate],activity in treating oral mucositis,[1]; general statement,active
